Our source for the IC50 values is US20240277795A1, “INHIBITORS OF CYSTEINE PROTEASES AND METHODS OF USE THEREOF” (Pardes Biosciences, Inc., priority 2021, published 2024).

Each structure is given as a SMILES string. Where two headings read alike, the source gives them in different places.

One experiment deals with 229E Mpro (Human coronavirus 229E, UniProt P0C6X1). Nature of the experiment: 229E Mpro enzymatic assay. The format is biochemical, HCoV 229E. The method, then: (§1) Compounds were assayed using standard methods to assess compound activity and IC50. As an exemplary for assessment of the SARS-COV2 Mpro, the C-His6-tagged Mpro (NC_045512) was cloned, expressed in E. coli and purified. The assay buffer contained 20 mM of Tris-HCl (pH 7.3), 100 mM of NaCl, 1 mM of EDTA, 5 mM of TCEP and 0.1% BSA. The final concentrations of the Mpro protein and substrate were 25 nM and 25 μM, respectively, in the Mpro enzymatic assay. The Km of the Mpro substrate for the protease was 13.5 μM.
Chain of 229E Mpro (P0C6X1 2966-3267): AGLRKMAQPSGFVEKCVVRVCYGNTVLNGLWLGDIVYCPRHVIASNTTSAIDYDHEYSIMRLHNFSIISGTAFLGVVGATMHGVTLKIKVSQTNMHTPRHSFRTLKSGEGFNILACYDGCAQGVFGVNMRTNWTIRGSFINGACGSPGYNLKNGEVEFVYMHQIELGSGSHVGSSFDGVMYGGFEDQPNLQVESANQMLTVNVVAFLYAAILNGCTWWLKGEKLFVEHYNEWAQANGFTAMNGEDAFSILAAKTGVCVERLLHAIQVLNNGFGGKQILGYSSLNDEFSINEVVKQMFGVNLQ
(§2) The compounds were added to an assay plate. For 100% inhibition control (HPE, hundred percent effect), 1 μM GC376 was added. For no inhibition control (ZPE, zero percent effect), no compound was added.
(§3) IC50 values of compounds were calculated with the GraphPad Prism software using the nonlinear regression model of log(inhibitor) vs. response—Variable slope (four parameters). The inhibition activity was calculated using the formula below, IC50 values is calculated using the Inhibition % data.
(§4) [formula] • #HEP: Hundred percent effect controls. Containing substrate+enzyme+1 μM GC376. • ZPE: Zero percent effective controls. Containing enzyme+substrate, no compound. • Sample: Compound activity testing wells. Containing compound+enzyme+substrate. • BG: Compound background control wells. Containing compound+substrate, no enzyme.

A further experiment deals with SARS-COV2 Mpro (Severe acute respiratory syndrome coronavirus 2, UniProt P0DTD1). Kind of experiment: COVID-19 (nCoV-2019, SARS-CoV2) Mpro enzymatic assay. The format is biochemical. The note with it: read-out: COVID-19 Mpro IC50. The method, then:
Compounds were assayed using standard methods to assess compound activity and IC50. As an exemplary for assessment of the SARS-COV2 Mpro, the C-His6-tagged Mpro (NC_045512) was cloned, expressed in E. coli and purified. The assay buffer contained 20 mM of Tris-HCl (pH 7.3), 100 mM of NaCl, 1 mM of EDTA, 5 mM of TCEP and 0.1% BSA. The final concentrations of the Mpro protein and substrate were 25 nM and 25 μM, respectively, in the Mpro enzymatic assay.
The compounds were added to an assay plate. For 100% inhibition control (HPE, hundred percent effect), 1 μM GC376 was added.
as §3
[formula] • #HEP: Hundred percent effect controls. […] Containing enzyme+substrate, no compound. • Sample: Compound activity testing wells. Containing compound+enzyme+substrate. • BG: Compound background control wells. Containing compound+substrate, no enzyme.

In the next experiment the target is OC43 Mpro (Human coronavirus OC43, UniProt P0C6X6). Nature of the experiment: OC43 Mpro enzymatic assay. The format is biochemical, HCoV OC43. The method, then:
as §1, §2, §3, §4

Chain of OC43 Mpro (P0C6X6 3247-3549): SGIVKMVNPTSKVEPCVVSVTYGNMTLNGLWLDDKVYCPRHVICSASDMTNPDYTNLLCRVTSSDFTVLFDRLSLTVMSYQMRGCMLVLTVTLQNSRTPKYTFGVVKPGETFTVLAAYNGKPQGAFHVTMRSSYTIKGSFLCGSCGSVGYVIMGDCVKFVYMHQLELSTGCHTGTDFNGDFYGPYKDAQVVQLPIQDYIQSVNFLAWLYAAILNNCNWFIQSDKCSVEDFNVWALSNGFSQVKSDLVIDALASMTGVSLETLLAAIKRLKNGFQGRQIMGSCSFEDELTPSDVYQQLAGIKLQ

A word on the IC50: it is the concentration that inhibits the measured activity by half. Consider `CO[C@H](C)[C@H](NC(=O)C(F)(F)F)C(=O)N1C[C@H]2[C@@H]([C@H]1C(=O)N[C@H](C#N)C[C@@H]1CC(C)(C)NC1=O)C2(C)C` [Compound 290, (1R,2S,5S)-N—((S)-1-cyano-2-((R)-5,5-dimethyl-2-oxopyrrolidin-3-yl)ethyl)-3-((2S,3R)-3-methoxy-2-(2,2,2-trifluoroacetamido)butanoyl)-6,6-dimethyl-3-azabicyclo[3.1.0]hexane-2-carboxamide], for which the IC50 at 229E Mpro (Table 5), on SARS-COV2 Mpro (Table 5) and at OC43 Mpro (Table 5) was under 2 µM each time.

As to `C[C@@H](OC(C)(C)C)[C@H](NC(=O)C1(C(F)(F)F)CC1)C(=O)N1C[C@H]2[C@@H]([C@H]1C(=O)N[C@H](C#N)C[C@@H]1CC(C)(C)NC1=O)C2(C)C` [Compound 295, (1R,2S,5S)-3-[(2S,3R)-3-tert-butoxy-2-[[1-(trifluoromethyl)cyclopropanecarbonyl]amino]butanoyl]-N-[(1S)-1-cyano-2-[(3R)-5,5-dimethyl-2-oxo-pyrrolidin-3-yl]ethyl]-6,6-dimethyl-3-azabicyclo[3.1.0]hexane-2-carboxamide], the IC50 against 229E Mpro (Table 5), on SARS-COV2 Mpro (Table 5) and against OC43 Mpro (Table 5) was under 2 µM each time.

For the molecule `C[C@@H](OC1CCC1)[C@H](NC(=O)C(F)(F)F)C(=O)N1C[C@H]2[C@@H]([C@H]1C(=O)N[C@H](C#N)C[C@@H]1CC(C)(C)NC1=O)C2(C)C` [Compound 307, (1R,2S,5S)—N-[(1S)-1-cyano-2-[(3R)-5,5-dimethyl-2-oxo-pyrrolidin-3-yl]ethyl]-3-[(2S,3R)-3-(cyclobutoxy)-2-[(2,2,2-trifluoroacetyl)amino]butanoyl]-6,6-dimethyl-3-azabicyclo[3.1.0]hexane-2-carboxamide], the concentration for half-maximal inhibition (IC50) against 229E Mpro (Table 3), at SARS-COV2 Mpro (Table 3) and on OC43 Mpro (Table 3) was under 2 µM throughout.

On to `C[C@@H](OC1(C)CCC1)[C@H](NC(=O)C(F)(F)F)C(=O)N1C[C@H]2[C@@H]([C@H]1C(=O)N[C@H](C#N)C[C@@H]1CC(C)(C)NC1=O)C2(C)C` [Compound 308, (1R,2S,5S)—N-[(1S)-1-cyano-2-[(3R)-5,5-dimethyl-2-oxo-pyrrolidin-3-yl]ethyl]-6,6-dimethyl-3-[(2S,3R)-3-(1-methylcyclobutoxy)-2-[(2,2,2-trifluoroacetyl)amino]butanoyl]-3-azabicyclo[3.1.0]hexane-2-carboxamide], for which the IC50 on 229E Mpro (Table 3), on SARS-COV2 Mpro (Table 3) and on OC43 Mpro (Table 3) was under 2 µM each time.

Take `C[C@@H](OCC(F)(F)F)[C@H](NC(=O)C(F)(F)F)C(=O)N1C[C@H]2[C@@H]([C@H]1C(=O)N[C@H](C#N)C[C@@H]1CC(C)(C)NC1=O)C2(C)C` [Compound 312, (1R,2S,5S)—N-[(1S)-1-cyano-2-[(3R)-5,5-dimethyl-2-oxo-pyrrolidin-3-yl]ethyl]-6,6-dimethyl-3-[(2S,3R)-2-[(2,2,2-trifluoroacetyl)amino]-3-(2,2,2-trifluoroethoxy)butanoyl]-3-azabicyclo[3.1.0]hexane-2-carboxamide]: the IC50 at 229E Mpro (Table 5), on SARS-COV2 Mpro (Table 5) and against OC43 Mpro (Table 5) was under 2 µM in each case.

Take `C[C@@H](OC1(C)CCC1)[C@H](NC(=O)C(F)(F)F)C(=O)N1C[C@H]2[C@@H]([C@H]1C(=O)N[C@H](C#N)C[C@@H]1CC3(CC3)NC1=O)C2(C)C` [Compound 314, (1R,2S,5S)—N-[(1S)-1-cyan-2-[(6R)-5-oxo-4-azaspiro[2.4]heptan-6-yl]ethyl]-6,6-dimethyl-3-[(2S,3R)-3-(1-methylcyclobutoxy)-2-[(2,2,2-trifluoroacetyl)amino]butanoyl]-3-azabicyclo[3.1.0]hexane-2-carboxamide]: the half-inhibitory concentration (IC50) against 229E Mpro (Table 5), on SARS-COV2 Mpro (Table 5) and against OC43 Mpro (Table 5) was under 2 µM throughout.

`C[C@@H](OC1(C)CC1)[C@H](NC(=O)C(F)(F)F)C(=O)N1C[C@H]2[C@@H]([C@H]1C(=O)N[C@H](C#N)C[C@@H]1CC3(CC3)NC1=O)C2(C)C` [Compound 315, (1R,2S,5S)—N-[(1S)-1-cyan-2-[(6R)-5-oxo-4-azaspiro[2.4]heptan-6-yl]ethyl]-6,6-dimethyl-3-[(2S,3R)-3-(1-methylcyclopropoxy)-2-[(2,2,2-trifluoroacetyl)amino]butanoyl]-3-azabicyclo[3.1.0]hexane-2-carboxamide]: the IC50 at 229E Mpro (Table 3), on SARS-COV2 Mpro (Table 3) and against OC43 Mpro (Table 3) was under 2 µM each time.

For `CC1(C)C[C@@H](C[C@@H](C#N)NC(=O)[C@@H]2[C@@H]3[C@H](CN2C(=O)C2(NC(=O)C(F)(F)F)CCC2)C3(C)C)C(=O)N1` [Compound 316, (1R,2S,5S)—N-[(1S)-1-cyano-2-[(3R)-5,5-dimethyl-2-oxo-pyrrolidin-3-yl]ethyl]-6,6-dimethyl-3-[1-[(2,2,2-trifluoroacetyl)amino]cyclobutanecarbonyl]-3-azabicyclo[3.1.0]hexane-2-carboxamide], the 50% inhibitory concentration (IC50) against 229E Mpro (Table 3) was over 30 µM; on SARS-COV2 Mpro (Table 3) it was under 2 µM; against OC43 Mpro (Table 3), 10 to 30 µM.

In the case of `C[C@@H](OCC(F)(F)F)[C@H](NC(=O)C(F)(F)F)C(=O)N1C[C@H]2[C@@H]([C@H]1C(=O)N[C@H](C#N)C[C@@H]1CC3(CC3)NC1=O)C2(C)C` [Compound 319, (1R,2S,5S)—N-[(1S)-1-cyan-2-[(6R)-5-oxo-4-azaspiro[2.4]heptan-6-yl]ethyl]-6,6-dimethyl-3-[(2S,3R)-2-[(2,2,2-trifluoroacetyl)amino]-3-(2,2,2-trifluoroethoxy)butanoyl]-3-azabicyclo[3.1.0]hexane-2-carboxamide], the IC50 against 229E Mpro (Table 5), at SARS-COV2 Mpro (Table 5) and against OC43 Mpro (Table 5) was under 2 µM in each case.

Take `C[C@@H](OC1(C2CC2)CC1)[C@H](NC(=O)C(F)(F)F)C(=O)N1C[C@H]2[C@@H]([C@H]1C(=O)N[C@H](C#N)C[C@@H]1CC(C)(C)NC1=O)C2(C)C` [Compound 324, (1R,2S,5S)—N-[(1S)-1-cyano-2-[(3R)-5,5-dimethyl-2-oxo-pyrrolidin-3-yl]ethyl]-3-[(2S,3R)-3-(1-cyclopropylcyclopropoxy)-2-[(2,2,2-trifluoroacetyl)amino]butanoyl]-6,6-dimethyl-3-azabicyclo[3.1.0]hexane-2-carboxamide]: the concentration for half-maximal inhibition (IC50) at 229E Mpro (Table 3), on SARS-COV2 Mpro (Table 3) and at OC43 Mpro (Table 3) was under 2 µM throughout.

In the case of `C[C@@H](OC1CC1)[C@H](NC(=O)C(F)(F)F)C(=O)N1C[C@H]2[C@@H]([C@H]1C(=O)N[C@H](C#N)C[C@@H]1CC3(CC3)NC1=O)C2(C)C` [Compound 326, (1R,2S,5S)—N-[(1S)-1-cyan-2-[(6R)-5-oxo-4-azaspiro[2.4]heptan-6-yl]ethyl]-3-[(2S,3R)-3-(cyclopropoxy)-2-[(2,2,2-trifluoroacetyl)amino]butanoyl]-6,6-dimethyl-3-azabicyclo[3.1.0]hexane-2-carboxamide], the IC50 against 229E Mpro (Table 5), at SARS-COV2 Mpro (Table 5) and against OC43 Mpro (Table 5) was under 2 µM each time.

As for `C[C@@H](OC1CCC1)[C@H](NC(=O)C(F)(F)F)C(=O)N1C[C@H]2[C@@H]([C@H]1C(=O)N[C@H](C#N)C[C@@H]1CC3(CC3)NC1=O)C2(C)C` [Compound 327, (1R,2S,5S)—N-[(1S)-1-cyan-2-[(6R)-5-oxo-4-azaspiro[2.4]heptan-6-yl]ethyl]-3-[(2S,3R)-3-(cyclobutoxy)-2-[(2,2,2-trifluoroacetyl)amino]butanoyl]-6,6-dimethyl-3-azabicyclo[3.1.0]hexane-2-carboxamide], the IC50 on 229E Mpro (Table 5), on SARS-COV2 Mpro (Table 5) and against OC43 Mpro (Table 5) was under 2 µM in each case.
